These results are taken from US20240228474A1, “ANTIBACTERIAL COMPOUND” (DISCUVA LIMITED, priority 2021, published 2024).

Each structure is given as a SMILES string. Values after ≈ are worked out from the molar mass of the structure shown.

Data set [1] can be described thus: Lipophilicity, Log P measured with SiriusT3 (octanol titration). It is filed as physicochemical. Conditions: octanol / aqueous sample solution. The procedure: Log P values of compound (I) and comparative compound (III) were measured using the SiriusT3 instrument from Sirius Analytical by performing an acid-based titration and measuring the shift in pKa when the sample solution is in contact with an immiscible solvent (octanol). Log P for the comparative compound (II) was calculated using Marvin (physico-chemical calculation software). The lipophilicity data for compound (I) and comparative compounds (II) and (III) was collected in separate experiments carried out on different days, and compared in Table 5.

In data set [2] the test system is Proteus mirabilis (DSM 4479). In words: MIC by broth microdilution (CLSI). It is filed as cell-based. Conditions: DSM4479. The procedure: Minimum Inhibitory Concentrations (MICs) versus Escherichia coli (NCTC 13441) and Klebsiella pneumoniae (NCTC 13438) (planktonic bacteria) were determined by the broth microdilution procedure in line with the guidelines of the Clinical and Laboratory Standards Institute (Clinical and Laboratory Standards Institute. Methods for Dilution Antimicrobial Susceptibility Tests for Bacteria That Grow Aerobically, Approved Standard-Eleventh Edition, CLSI document M07, 11 Jan. 2018). The broth dilution method involved a two-fold serial dilution of compounds in 96-well microtitre plates, giving a final concentration range of 0.39-200 μM and a maximum final concentration of 2% DMSO. The bacterial strains tested were Escherichia coli (NCTC 13441) and Klebsiella pneumoniae (NCTC 13438). Strains were grown in cation-adjusted Müller-Hinton broth or on Luria Bertani agar at 37° C. in an ambient atmosphere. The MIC (μM) was determined as the lowest concentration of compound that inhibits growth following a 20-24 hour incubation period.
Minimum Inhibitory Concentrations (MICs) versus Proteus mirabilis (DSM 4479) were determined for compound (I) and comparative compounds (II) and (III) using the methodology outlined above.
In general terms: In broth dilution the organism is exposed to a series of concentrations in liquid medium.

One may read the logP as the decadic logarithm of the partition coefficient of the neutral form, usually between octanol and water. Read a high logP as higher lipophilicity. One may read the MIC as the lowest concentration that inhibits growth of the organism. A higher MIC goes with a need for much substance. On to `Cc1cnccc1-c1[nH]c(N)nc1-c1ccc2c(c1)N(C(=O)C(C)(C)N)CCO2` [Compound (I), 2-amino-1-(6-(2-amino-5-(3-methylpyridin-4-yl)-1H-imidazol-4-yl)-2,3-dihydro-4H-benzo[b][1,4]oxazin-4-yl)-2-methylpropan-1-one], for which the log partition coefficient (logP) in data set [1] was determined as 1.6. In data set [2], this compound showed a minimal inhibitory concentration (MIC) of 25 µM (≈ 9.81 µg/mL).
